{"source": "ChEMBL document CHEMBL6096678", "about": "“Targeting QPCTL: An Emerging Therapeutic Opportunity” (J Med Chem, 2025)", "key": {"[1]": {"molecular_target": "Glutaminyl-peptide cyclotransferase (Homo sapiens, UniProt Q16769)", "sequence (Q16769 whole entry)": "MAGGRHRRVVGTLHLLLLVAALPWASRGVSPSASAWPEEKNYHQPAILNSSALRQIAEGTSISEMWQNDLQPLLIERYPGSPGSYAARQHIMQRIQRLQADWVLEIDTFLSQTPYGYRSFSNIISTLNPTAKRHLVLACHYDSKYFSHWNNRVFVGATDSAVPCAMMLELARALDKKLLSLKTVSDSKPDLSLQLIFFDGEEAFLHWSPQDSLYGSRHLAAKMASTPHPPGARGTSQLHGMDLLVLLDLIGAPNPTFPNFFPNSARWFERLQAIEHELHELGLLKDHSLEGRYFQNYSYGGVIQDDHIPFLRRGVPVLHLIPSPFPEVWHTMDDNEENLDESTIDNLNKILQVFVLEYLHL", "assay": "Binding affinity to QPCT (unknown origin) assessed as inhibition constant"}, "[2]": {"molecular_target": "T1, Glutaminyl-peptide cyclotransferase-like protein (Homo sapiens, UniProt Q9NXS2)", "T1 sequence (Q9NXS2 whole entry)": "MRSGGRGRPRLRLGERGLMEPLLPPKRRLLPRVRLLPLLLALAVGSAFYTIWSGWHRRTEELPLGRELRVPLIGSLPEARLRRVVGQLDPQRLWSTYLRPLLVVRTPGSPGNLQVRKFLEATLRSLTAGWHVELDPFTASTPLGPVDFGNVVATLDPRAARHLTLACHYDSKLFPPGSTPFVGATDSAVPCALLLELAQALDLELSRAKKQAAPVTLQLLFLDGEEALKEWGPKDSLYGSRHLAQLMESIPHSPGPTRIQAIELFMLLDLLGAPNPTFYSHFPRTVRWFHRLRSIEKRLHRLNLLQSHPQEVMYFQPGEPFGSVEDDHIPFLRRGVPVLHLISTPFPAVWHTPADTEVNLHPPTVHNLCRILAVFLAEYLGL", "assay": "Binding affinity to QPTCL (unknown origin) assessed as inhibition constant"}, "[3]": {"molecular_target": "T1, Glutaminyl-peptide cyclotransferase-like protein", "assay": "Inhibition of QPCTL (unknown origin)"}, "[4]": {"molecular_target": "T1, Glutaminyl-peptide cyclotransferase-like protein", "assay": "Binding affinity to QPCTL (unknown origin) extracted from Escherichia coli BL21 (DE3) assessed as inhibition constant"}, "[5]": {"molecular_target": "T1, Glutaminyl-peptide cyclotransferase-like protein", "assay": "Binding affinity to QPCTL (unknown origin) assessed as dissociation constant"}}, "data": [{"molecule": "CCCOc1ccc(C2c3c(nn(C)c3C)C(=O)N2c2ccc3[nH]cnc3c2)c(F)c1", "note": "(configuration not stated)", "values": [{"measurement": "Ki", "setting": "[1]", "value": "< 100", "unit": "nM"}, {"measurement": "Ki", "setting": "[2]", "value": "< 25", "unit": "nM"}]}, {"molecule": "Cc1ccc(-c2ccsc2)c(N2CCC(c3nnc(N)n3C)CC2)n1", "values": [{"measurement": "IC50", "setting": "[3]", "value": "< 1", "unit": "nM"}]}, {"molecule": "O=C1[C@H](O)[C@H](c2c(F)cc(-c3cnn(C(F)F)c3)cc2F)N1c1ccc2[nH]cnc2c1", "values": [{"measurement": "Ki", "setting": "[2]", "value": "< 2", "unit": "nM"}]}, {"molecule": "Cn1ccnc1", "note": "[1-METHYLIMIDAZOLE]", "values": [{"measurement": "Ki", "setting": "[4]", "value": 79000, "unit": "nM"}]}, {"molecule": "O=c1cc(-c2ccc(O)c(O)c2)oc2cc(O)cc(O)c12", "note": "[LUTEOLIN]", "values": [{"measurement": "Kd", "setting": "[5]", "value": 9400, "unit": "nM"}]}, {"molecule": "CCCOc1ccc([C@H]2CNC(=O)N2c2ccc3[nH]cnc3c2)cc1", "note": "[VAROGLUTAMSTAT]", "values": [{"measurement": "Ki", "setting": "[2]", "value": 5, "unit": "nM"}]}]}
